{
  "source": "patent US20260000698A1",
  "about": "(priority 2022, published 2026)",
  "key": {"[1]": {"test": "Plasma stability assay, human plasma", "format": "in vitro ADME", "protocol": "(§1) Plasma stability assay. The plasma stability assay was performed in triplicate by incubating each selected compound (1 μmol/L final concentration) in normal mouse (CD-1) or human plasma (Innovative Research; Novi, MI, USA) diluted to 80% with 0.1 mol/L potassium phosphate buffer (pH 7.4) at 37° C. At 0, 1, 3, 6, and 24 h, a 50 μL aliquot of the plasma mixture was taken and quenched with 150 μL of acetonitrile containing 0.1% formic acid. The samples were then vortexed and centrifuged at 15,000 rpm (Eppendorf centrifuge 5424R; Enfield, CT, USA) for 5 min. The supernatants were collected and analyzed by LC-MS/MS to determine the in vitro plasma half-life (t1/2)."}, "[2]": {"test": "Plasma stability assay, mouse plasma", "format": "in vitro ADME, mouse (CD-1)", "protocol": "as §1"}, "[3]": {"test": "Parallel artificial membrane permeability assay (PAMPA)", "format": "in vitro ADME", "protocol": "Parallel artificial membrane permeability assay (PAMPA).^5 The membrane permeability of selected compounds was evaluated using the Corning® BioCoat™ Pre-coated PAMPA Plate System (Corning 353015; Glendale, AZ, USA). The pre-coated plate assembly, which was stored at −20° C., was taken to thaw for 30 min at room temperature. The permeability assay was carried out in accordance with the manufacturer's protocol. Briefly, the 96-well filter plate, pre-coated with lipids, was used as the permeation acceptor and a matching 96 well receiver plate was used as the permeation donor. Compound solutions were prepared by diluting the 10 mmol/L DMSO stock solutions with 10% methanol in DPBS to a final concentration of […]. The compound solutions were added to the wells (300 μL/well) of the receiver plate and DPBS with 10% methanol was added to the wells (200 μL/well) of the pre-coated filter plate. The filter plate was then coupled with the receiver plate and the plate assembly was incubated at 25° C. without agitation for 5 h. At the end of the incubation, the plate was separated and the final concentrations of compounds in both donor wells and acceptor wells were analyzed using LC-MS/MS. Permeability of a compound was calculated using the Eq. (1):\nwhere A=filter area (0.3 cm^2), VD=donor well volume (0.3 mL), VA=acceptor well volume (0.2 mL), t=incubation time (seconds), CA(t)=compound concentration in acceptor well at time t, CD(t)=compound concentration in donor well at time t, and Ceq was calculated using the Eq. (2): […]\nA cutoff criterion of Pe value at […] was used to classify the compounds into high and low permeability according to the literature report of this PAMPA plate system^1."}, "MLL1 Complex": {"target": "T1, MLL1 Complex (Homo sapiens, UniProt Q03164)", "T1 construct": "purchased BPS Bioscience", "T1 sequence (Q15291 whole entry)": "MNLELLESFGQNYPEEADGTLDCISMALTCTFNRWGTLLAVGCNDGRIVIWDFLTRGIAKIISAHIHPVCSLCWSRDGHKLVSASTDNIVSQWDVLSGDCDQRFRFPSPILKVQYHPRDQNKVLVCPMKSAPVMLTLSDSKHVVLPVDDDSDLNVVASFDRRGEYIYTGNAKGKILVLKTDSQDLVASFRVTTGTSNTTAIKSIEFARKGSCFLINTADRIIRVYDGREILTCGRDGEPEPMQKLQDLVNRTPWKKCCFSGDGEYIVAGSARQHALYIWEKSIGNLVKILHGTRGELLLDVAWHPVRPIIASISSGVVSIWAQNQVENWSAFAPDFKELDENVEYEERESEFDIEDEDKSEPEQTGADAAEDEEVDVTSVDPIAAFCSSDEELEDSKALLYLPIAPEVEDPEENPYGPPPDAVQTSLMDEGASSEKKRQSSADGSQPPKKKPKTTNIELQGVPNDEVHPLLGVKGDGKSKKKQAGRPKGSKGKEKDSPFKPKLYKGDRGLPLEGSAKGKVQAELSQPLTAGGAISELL", "T1 sequence (Q9C005 whole entry, further chain)": "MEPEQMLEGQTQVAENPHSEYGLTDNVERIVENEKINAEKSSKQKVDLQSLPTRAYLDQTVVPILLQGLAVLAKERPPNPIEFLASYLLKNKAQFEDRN", "T1 sequence (Q9UBL3 whole entry, further chain)": "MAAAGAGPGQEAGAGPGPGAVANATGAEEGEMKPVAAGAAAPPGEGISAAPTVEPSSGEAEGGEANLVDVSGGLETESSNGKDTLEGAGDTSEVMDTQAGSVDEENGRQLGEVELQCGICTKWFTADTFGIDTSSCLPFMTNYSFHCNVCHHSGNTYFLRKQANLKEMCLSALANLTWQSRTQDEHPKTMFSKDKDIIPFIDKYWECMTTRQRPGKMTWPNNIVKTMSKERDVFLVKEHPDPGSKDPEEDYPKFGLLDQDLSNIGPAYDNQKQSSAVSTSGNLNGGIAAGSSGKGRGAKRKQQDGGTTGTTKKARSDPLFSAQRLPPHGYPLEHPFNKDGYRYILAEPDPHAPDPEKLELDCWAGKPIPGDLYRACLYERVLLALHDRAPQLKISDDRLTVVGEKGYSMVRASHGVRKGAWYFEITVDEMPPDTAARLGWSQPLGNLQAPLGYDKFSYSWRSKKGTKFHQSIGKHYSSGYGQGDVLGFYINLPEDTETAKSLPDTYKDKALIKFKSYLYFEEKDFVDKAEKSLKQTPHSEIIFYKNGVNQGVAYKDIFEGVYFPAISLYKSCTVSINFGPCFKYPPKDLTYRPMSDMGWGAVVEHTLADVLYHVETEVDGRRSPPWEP", "T1 sequence (Q03164 3745-3969)": "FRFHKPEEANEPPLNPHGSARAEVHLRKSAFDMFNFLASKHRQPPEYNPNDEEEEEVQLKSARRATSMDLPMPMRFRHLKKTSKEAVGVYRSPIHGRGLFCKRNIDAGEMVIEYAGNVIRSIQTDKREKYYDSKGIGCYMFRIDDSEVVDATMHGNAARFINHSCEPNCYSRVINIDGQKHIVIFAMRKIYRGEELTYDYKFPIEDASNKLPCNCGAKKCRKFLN", "test": "Human MTase screening: MLL1 Complex", "format": "biochemical", "protocol": "(§2) Assay conditions. The human methyltransferase inhibition assays were performed at BPS Bioscience (San Diego, CA, USA). All of the enzymatic reactions were conducted in duplicate at room temperature for 60-960 min in a 50 μL mixture containing proper methyltransferase assay buffer, S-adenosylmethionine (SAM), enzyme, and the test compound. These 50 μL reactions were carried out in wells of a substrate pre-coated plate. First, enzyme and inhibitor were added to assay wells and preincubated for 30 min at room temperature, then SAM was added to start the reaction. Final DMSO concentration was 1% in all reactions.\n(§3) After enzymatic reactions, the reaction mixtures were discarded and each of the wells was washed three times with TBST buffer, and slowly shaken with Blocking Buffer for 10 min. Wells were emptied, and 100 μL of diluted primary antibody was added. The plate was then slowly shaken for 60 minutes at room temperature. […] Immediately, the luminescence of the samples was measured in a BioTek Synergy™ 2 (Winooski, VT, USA) microplate reader using Gen5 software.\n(§4) Data analysis. […] The luminescence data/alpha counts were analyzed and compared. […] The percent activity in the presence of each compound was calculated according to the following equation: % activity=(C−C0)/(Ce−C0), where C=the luminescence/alpha counts in the presence of the compound."}, "PRMT3": {"target": "T2, PRMT3 (Homo sapiens, UniProt O60678)", "T2 construct": "purchased BPS Bioscience", "T2 sequence (O60678 whole entry)": "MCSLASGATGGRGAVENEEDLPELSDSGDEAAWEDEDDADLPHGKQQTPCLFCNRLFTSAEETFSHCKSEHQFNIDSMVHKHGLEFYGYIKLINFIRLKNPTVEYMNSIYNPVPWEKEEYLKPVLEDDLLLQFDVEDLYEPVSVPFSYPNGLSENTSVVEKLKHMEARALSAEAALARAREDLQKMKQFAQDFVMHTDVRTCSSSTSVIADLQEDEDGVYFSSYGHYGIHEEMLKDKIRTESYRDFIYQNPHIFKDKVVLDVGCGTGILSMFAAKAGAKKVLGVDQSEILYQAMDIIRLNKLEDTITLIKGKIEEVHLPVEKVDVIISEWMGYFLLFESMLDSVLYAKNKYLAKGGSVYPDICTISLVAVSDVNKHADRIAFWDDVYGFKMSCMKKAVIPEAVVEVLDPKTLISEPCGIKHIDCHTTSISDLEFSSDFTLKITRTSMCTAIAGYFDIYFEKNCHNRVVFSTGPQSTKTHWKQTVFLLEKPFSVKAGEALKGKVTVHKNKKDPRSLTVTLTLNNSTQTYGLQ", "test": "Human MTase screening: PRMT3", "format": "biochemical", "protocol": "as §2, §3, §4"}, "panel of 10 human MTases": {"tested_on": "panel of 10 human MTases", "test": "Human MTase screening, whole panel", "format": "biochemical", "settings": "10 μM", "protocol": "To evaluate selectivity over human MTases, compound 3 was screened against a panel of 10 human MTases including histone lysine, protein arginine, DNA and RNA MTases. […] These preliminary results bolstered our premise that it was feasible to design selective Nsp14 MTase because of its unique structure in contrast to the canonical Rossmann fold.\nas §2, with “First, enzyme and inhibitor were added to assay wells and preincubated for 30 min at room temperature, then SAM was added to start the reaction. Final DMSO concentration was 1% in all reactions.” left out\nas §3, with “min.” for “min. Wells were emptied, and 100 μL of diluted primary antibody was added. The plate was then slowly shaken for 60 minutes at room temperature.”\nas §4"}, "[4]": {"tested_on": "SARS-CoV-2 isolate USA-WA1/2020", "settings": "inhibition at 50 μM"}},
  "note": "Marks after values point to notes of the source that are not given here.",
  "data": [
    {"smiles": "Nc1ncnc2c1ncn2[C@@H]1O[C@H](CNS(=O)(=O)c2ccc3ccccc3c2)[C@@H](O)[C@H]1O", "note": "[Compound 3, N-(((2R,3S,4R,5R)-5-(6-Amino-9H-purin-9-yl)-3,4-dihydroxytetrahydrofuran-2-yl)methyl)naphthalene-2-sulfonamide]", "values": [
      {"measurement": "Plasma Stability t1/2, Human", "setting": "[1]; human plasma, 37° C., n = 3", "result": ">24^d h"},
      {"measurement": "stability in human plasma", "setting": "[1]; human, plasma", "result": "remarkably stable"},
      {"measurement": "Plasma Stability t1/2, Mouse", "setting": "[2]; mouse plasma, 37° C., n = 3", "result": ">24^d h"},
      {"measurement": "stability in mouse plasma", "setting": "[2]; mouse, plasma", "result": "remarkably stable"},
      {"measurement": "passive diffusion rate in PAMPA", "setting": "[3]; PAMPA", "result": "equally low"},
      {"measurement": "PAMPA Permeability Pe", "setting": "[3]; n = 6, mean±SD, 25° C., 5 h", "result": "0.2 ± 0.1 10^−6 cm/s"},
      {"measurement": "inhibition at 10 µM", "setting": "MLL1 Complex", "result": 1, "unit": "%"},
      {"measurement": "inhibition at 10 µM", "setting": "PRMT3", "result": 0, "unit": "%"},
      {"measurement": "inhibition of a panel of 10 human MTases", "setting": "panel of 10 human MTases", "result": "minimal inhibition"},
      {"measurement": "EC50: NA (not active)", "setting": "[4]", "result": "NA^a (NA, not active, <15% inhibition at 50 μM.)"}
    ]}
  ]
}
